Results taken from BindingDB's records for doi:10.1021/jm701509k (Astrazeneca, 2008).

Target: Hematopoietic prostaglandin D synthase (Homo sapiens, UniProt O60760)
Experiment: In Vitro GST Activity Assay
Conditions: pH 7.2; 22 °C
Procedure: The PGDS glutathione-S-transferase (GST) activity was measured by using MonoChloroBimane (MCB) as a chromogenic substrate. The assay was run at 384-well format in reaction buffer containing enzyme and test compound. Then MCB and GSH were added for further incubation. After reaction was stopped, the fluorescence was measured (excitation: 390 nm; emission: 478 nm).

Hematopoietic prostaglandin D synthase, sequence (O60760 whole entry): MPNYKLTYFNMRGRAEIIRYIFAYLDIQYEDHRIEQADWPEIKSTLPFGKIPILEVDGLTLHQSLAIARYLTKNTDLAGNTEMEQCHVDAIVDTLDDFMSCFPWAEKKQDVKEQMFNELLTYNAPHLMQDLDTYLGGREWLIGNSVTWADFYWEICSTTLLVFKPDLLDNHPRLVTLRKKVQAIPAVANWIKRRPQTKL

Row | IC50 | SMILES
1 | 3.8 µM | COc1ccc(-c2cc3c(nn2)-c2ccccc2C3=O)cc1
2 | 45 µM | CCOC(=O)c1cc(OC)c(-c2ccccc2)nn1 [ethyl 5-methoxy-6-phenylpyridazine-3-carboxylate]
